# Columns and labels:
# Type in all cases: functional
# [1] = tested on: Staphylococcus epidermidis; assay: Minimum inhibitory concentration (MIC) preventing growth of Staphylococcus epidermidis
# [2] = tested on: Bacillus cereus; assay: Minimum inhibitory concentration (MIC) preventing growth of Bacillus cereus
# [3] = tested on: Bacillus subtilis; assay: Minimum inhibitory concentration (MIC) preventing growth of Bacillus subtilis
# [4] = tested on: Morganella morganii; assay: Minimum inhibitory concentration (MIC) preventing growth of Morganella morganii
# [5] = tested on: Proteus vulgaris; assay: Minimum inhibitory concentration (MIC) preventing growth of Proteus vulgaris
# [6] = tested on: Enterococcus faecalis; assay: Minimum inhibitory concentration (MIC) preventing growth of Streptococcus faecalis ATCC 10541
# [7] = tested on: Pseudomonas aeruginosa; assay: Minimum inhibitory concentration (MIC)preventing growth of Pseudomonas aeruginosa
# [8] = tested on: Enterobacter cloacae; assay: Minimum inhibitory concentration (MIC)preventing growth of Enterobacter cloacae
# [9] = tested on: Klebsiella pneumoniae; assay: Minimum inhibitory concentration (MIC)preventing growth of Klebsiella pneumoniae
# [10] = tested on: Staphylococcus aureus; assay: Minimum inhibitory concentration (MIC) preventing growth of […]
# [11] = tested on: Escherichia coli; assay: Minimum inhibitory concentration (MIC)preventing growth of Escherichia coli
MIC [1] [µg/mL],MIC [2] [µg/mL],MIC [3] [µg/mL],MIC [4] [µg/mL],MIC [5] [µg/mL],MIC [6] [µg/mL],MIC [7] [µg/mL],MIC [8] [µg/mL],MIC [9] [µg/mL],MIC [10] [µg/mL],MIC [11] [µg/mL],SMILES
0.12,0.5,0.06,0.015,1,1,1,0.015,0.015,0.25,0.06,CC1(N)CN(c2c(F)cc3c(=O)c(C(=O)O)cn(CCF)c3c2Cl)C1
0.06,0.06,0.015,0.25,0.06,2,2,0.12,0.015,0.06,0.12,O=C(O)c1cn(C2CC2)c2cc(N3CCC3)c(F)cc2c1=O
0.06,0.015,0.015,0.12,0.12,2,2,0.12,0.015,0.06,0.06,Nc1c(F)c(N2CC(O)C2)c(F)c2c1c(=O)c(C(=O)O)cn2C1CC1
0.25,0.12,0.06,0.12,0.12,0.5,1,0.25,0.25,0.25,0.12,CC1(CN)CN(c2cc3c(cc2F)c(=O)c(C(=O)O)cn3C2CC2)C1
0.06,0.12,0.03,0.06,0.12,0.5,0.5,0.03,0.03,0.06,0.03,CCNC1CN(c2cc3c(cc2F)c(=O)c2c(=O)[nH]sc2n3C2CC2)C1
0.03,0.03,0.015,0.015,0.06,0.12,0.25,0.015,0.015,0.06,0.015,CC1(N)CN(c2cc3c(cc2F)c(=O)c2c(=O)[nH]sc2n3C2CC2)C1

# Second part, the molecule before the results:
SMILES,MIC [1] [µg/mL],MIC [2] [µg/mL],MIC [3] [µg/mL],MIC [4] [µg/mL],MIC [5] [µg/mL],MIC [6] [µg/mL],MIC [7] [µg/mL],MIC [8] [µg/mL],MIC [9] [µg/mL],MIC [10] [µg/mL],MIC [11] [µg/mL]
Nc1c(F)c(N2CC(N)C2)c(F)c2c1c(=O)c(C(=O)O)cn2C1CC1,0.12,0.015,0.015,0.015,0.06,0.25,0.25,0.015,0.015,0.06,0.015
CC1(N)CN(c2c(F)cc3c(=O)c(C(=O)O)cn(-c4ccc(F)cc4F)c3c2F)C1,0.5,0.5,0.25,0.5,0.5,0.25,2,0.25,0.5,0.25,0.25
CC1(N)CN(c2nc3c(cc2F)c(=O)c(C(=O)O)cn3CCF)C1,0.5,0.5,0.12,0.12,1,2,2,0.12,0.06,0.5,0.06
CC1(N)CN(c2cc3c(cc2F)c(=O)c(C(=O)O)cn3CCF)C1,1,1,0.25,0.5,1,2,4,1,0.5,1,0.5
CCNCC1(C)CN(c2c(F)cc3c(=O)c(C(=O)O)cn(C4CC4)c3c2F)C1,0.25,0.25,0.12,0.25,0.25,1,2,0.25,0.25,0.25,0.25
CCC1(O)CN(c2c(F)cc3c(=O)c(C(=O)O)cn(C4CC4)c3c2F)C1,0.25,0.5,0.06,0.5,0.25,1,2,0.5,0.12,0.5,0.25
CNC1CN(c2nc3c(cc2F)c(=O)c(C(=O)O)cn3C2CC2)C1,0.12,0.12,0.06,0.06,0.25,0.5,0.5,0.03,0.03,0.25,0.03
CC(=O)OC1CN(c2c(F)cc3c(=O)c(C(=O)O)cn(C4CC4)c3c2F)C1,0.12,0.12,0.015,0.25,0.12,2,2,0.12,0.015,0.12,0.12
